Measurements reported in US20090170899A1, “Stimulators of 5-HT4 receptors and uses thereof” (priority 2004, published 2009).
Entries after “also recorded” stand apart in the source; their conditions may differ.

Legend:
Format in all cases: in vivo, rat
[1] = tested on: hippocampal CA3 pyramidal neurons; assay: Response of hippocampal CA3 pyramidal neurons to WAY 100635 after 3-day treatments (5-HT1A tonus)
Description: FIGS. 8A to 8C. […] Single-cell extracellular recordings were performed in the CA3 region of chloral-hydrate anaesthetized rats by using multiple-barrel glass microelectrodes, combined with microiontophoretic pumps (with the central barrel used for recordings). Pyramidal neurons were identified according to the classical criteria (see Example 5, the experimental procedures). The 5-HT4 agonists were administered through the use of osmotic minipumps, inserted subcutaneously in the region of the back. Recordings were performed with the minipumps still in place. *p<0.05, **p<0.01, ***p<0.001 vs control, Dunnett's test. […] FIG. 8C is a typical example showing the response of a single pyramidal neuron to cumulative doses of WAY 100635, in a rat co-administered with RS 67333 (same treatment as above for FIG. 8A) and the 5-HT depleter para-chlorophenylalanine (pCPA; 150 mg/kg, i.p. once daily 72, 48 and 24 h before the recordings).
Drugs and Chemicals. The following compounds were used: GR 125487 sulphamate, prucalopride monohydrochloride, citalopram hydrobromide (gifts from Glaxo, Janssen and Lundbeck laboratories, respectively), RS 67333 hydrochloride (Tocris Cookson Inc., Ellisville, Mo., USA), WAY 100635 hydrochloride (Research Biochemicals, Natick, Mass., USA), pCPA methyl ester hydrochloride, BrdU (Sigma-Aldrich Canada, Oakville, Ontario, Canada). All compounds were diluted in distilled water. All drug dosages refer to the free base. For chronic treatments, prucalopride (2.5 mg/kg/day), RS 67333 (1.5 mg/kg/day) or the vehicle were delivered through osmotic minipumps (Alza, Palo Alto, Calif., USA), inserted subcutaneously in the region of the back under short-duration (≦5 min) halothane anesthesia. The 5-HT depleter PCPA was administered once daily at the dose of 150 mg/kg, i.p., 72, 48 and 24 h before the recordings. BrdU treatments consisted of two administrations per day (50 mg/kg, i.p. each, 8 h interval), starting from the day of minipump insertion until day 2 post-surgery.
(§1) Microiontophoresis and extracellular recordings from hippocampal CA3 pyramidal neurons. Recording and microiontophoresis were performed with five-barreled glass micropipettes broken back to 8-12 μm under microscope control. The central barrel was filled with the same solution as in the DRN and was used for extracellular unitary recordings. Pyramidal neurons were identified by their large amplitude (0.5-1.2 mV) and long-duration (0.8-1.2 ms) simple spikes alternating with complex spike discharges (Kandel and Spencer, 1961). The side barrels contained the following solutions: quisqualate (1.5 mM in 200 mM NaCl, pH 8), WAY 100635 (15 mM in 200 mM NaCl, pH 4), and 2 M NaCl used for automatic current balancing. Rats were mounted in the stereotaxic apparatus and the micropipettes were lowered at 4.2 mm lateral and 4.2 anterior to lambda into the CA3 sub-region of the dorsal hippocampus.
The firing activity of dorsal hippocampus pyramidal neurons was then recorded in the CA3 subfield, before and after systemic administration of the selective 5-HTLA antagonist WAY 100635.

[2] = tested on: hippocampal CA3 pyramidal neurons; assay: Acute i.v. prucalopride on firing of hippocampal CA3 pyramidal neurons, with microiontophoresis
Description: FIGS. 9A to 9D. FIGS. 9A and 9C show a typical example (integrated firing rate histogram) of the response of a single hippocampal pyramidal neuron of the CA3 sub-field to an acute, intravenous administration of the selective 5-HT4 agonist prucalopride (1000 μg/kg), and its reversal by local, microiontophoretic application of the selective 5-HT1A antagonist WAY 100635 (A), or systemic injection of the selective 5-HT4 antagonist GR 125487 (1000 μg/kg, i.v.) (C). Single-cell extracellular recordings were performed in the CA3 region of chloral-hydrate anaesthetized rats by using multiple-barrel glass microelectrodes, combined with microiontophoretic pumps (with the central barrel used for recordings). Pyramidal neurons were identified according to the classical criteria (see Example 5, experimental procedures). FIGS. 9B and 9D show a summary of the effects as for FIGS. 9A and 9C, respectively. Bar histograms represent the mean (S.E.M.) percentage effect, calculated for each neuron with respect to its basal firing rate (i.e. 100% value), and the number in each column represents the number of neurons tested. *p<0.05 vs basal value, one-way ANOVA.
as §1
Involvement of endogenous 5-HT and hippocampal 5-HT1A receptors in the effect of 5-HT4 agonists. […] This interpretation is consistent with our own previous findings, showing that both acute and chronic (3-day) administration of the same compounds augment DRN 5-HT neuronal firing activity (Lucas and Debonnel, 2002; Lucas et al., 2005). It is also in keeping with observations from a single in vivo microdialysis study, where acute systemic injection of preferential 5-HT4 agonists increased hippocampal 5-HT efflux (Ge and Barnes, 1996). To further address this possibility, two additional series of experiments were conducted. First, the role of endogenous 5-HT was assessed by using the same protocol as above, in rats co-treated with RS 67333 (or its vehicle) and the 5-HT depleter para-chlorophenylalanine (pCPA). […] The ejection currents of quisqualate needed to activate CA3 pyramidal neurons were, in this case, similar to those used in controls (0 to −2 nA, FIG. 8C). We then tested the ability of a local application of WAY 100635, directly into the CA3 subfield through the use of microiontophoresis, to modify the effect of a 5-HT4 agonist. We chose not to use the previous protocol (i.e. chronic treatments), because, as shown above, the required quisqualate currents differ between the experimental groups. Even though all currents were balanced, it was not possible to exclude the possibility that the amount of quisqualate present in the vicinity of the electrode may have an influence on the quantity of WAY 100635 actually ejected, and/or on its ability to act on pyramidal neurons. For this reason, prucalopride was used acutely in naïve rats, at a dose known to induce a significant augmentation of DRN 5-HT neuronal activity (1000 μg/kg, i.v.) (Lucas and Debonnel, 2002). […]

DRN 5-HT neurons = assay: Extracellular single-unit recordings of DRN 5-HT neuron mean firing rate in anaesthetized rats
[3] = Forced swimming test (FST)
Text: The “forced swimming test” (FST) is a behavioural test for rodents, which predicts the efficacy of antidepressant drugs (Porsolt et al., 1977; Lucki, 1997). […] The widespread use of this model is largely a result of its ease of use, reliability across laboratories and ability to detect a broad spectrum of antidepressant agents. The test is based on the observation that rats, following initial escape-oriented movements (climbing and swimming), develop an immobile posture when placed in an inescapable cylinder of water. If they are replaced in the same testing apparatus 24 h later, they resume this immobile posture quickly. The immobility is thought to reflect either a failure of persistence in escape-directed behavior (i.e. behavioral despair) or the development of passive behavior that disengages the animal from active forms of coping with stressful stimuli. If antidepressant treatments are given between the two exposures, the subjects will actively persist engaging in escape-directed behaviors for longer periods of time than after vehicle treatment. This will be reflected by a reduction of immobility time, and by an increase of climbing attempts. […] The combination effect of a particular 5-HT4 agonist and a SSRI may be evaluated using the FST model.
Experiments were carried out in male Sprague-Dawley rats (Charles River, St Constant, Québec). We used the FST as previously described (Porsolt et al., 1977). Briefly, the rats experienced a pretest session followed 24 hours later by a test session. For both the pretest and the test sessions, conducted under low illumination (12 lx), the rats were placed in a plastic cylindrical tank (50 cm high by 20 cm in diameter) filled with water at […], with a depth of 40 cm, for which the hind limbs could not reach the tank floor. In all experiments, the pretest was carried out for 15 min and the test for 5 min in the same tank but only the last 4 min were analyzed. Following either pretest or test sessions, rats were dried with a towel and kept warm for 30 min before returning in their home cage. A digital camera recorded on line animal's behavior during the FST, and both time of immobility and climbing attempts were counted. Citalopram hydrobromide (10 mg/kg, i.p.) or paroxetine (10 mg/kg, i.p.) and prucalopride hydrochloride (2.5 mg/kg, i.p.) or RS 67333 hydrochloride (1.5 mg/kg, i.p.) were administered simultaneously 30 minutes before the test session. Animals were divided into 4 groups: vehicle/vehicle, 5-HT4 agonist/vehicle, vehicle/SSRI and 5-HT4 agonist/SSRI. For each compound, distilled water was used as the vehicle. All drug dosages refer to the free base.
Behavioral experiments. We used the FST as previously described (Porsolt et al., 1977). Briefly, rats experienced a pre-test session followed 24 hours later by a test session. For both the pre-test and the test sessions, conducted under low illumination (12 lx), the animals were placed in a plastic cylindrical tank (50 cm high by 20 cm in diameter) filled with water at […], with a depth of 40 cm, for which the hind limbs could not reach the tank floor. In all experiments, the pre-test was carried out for 15 min and the test for 5 min in the same tank but the last 4 min only were analyzed. Prucalopride (2.5 mg/kg, i.p.) and RS 67333 (1.5 mg/kg, i.p.) were administered 30 min before the test session. Following either pre-test or test sessions, rats were dried with a towel and kept warm for 30 min before returning in their home cage. A camera coupled with a computer recorded on line animal behavior during the FST through a specialized digital interface (Videotrack, ViewPoint, Lyon, France). This interface underscored on line the subtraction of video frames. Immobility time in FST was derived from the number of frames (every 40 ms) being below a predefined threshold over FST duration.

DRN 5-HT1A autoreceptors = assay: Citalopram i.v. dose-response on DRN 5-HT neuron firing (5-HT1A autoreceptor sensitivity) after 3-day RS 67333
Description: FIG. 7 is a dose-response curve illustrating the effect of cumulative intravenous doses of citalopram on DRN 5-HT neuron average (mean±S.E.M.) firing rate, expressed as percentage of basal activity, in rats treated with the selective 5-HT4 agonist RS 67333 (1.5 mg/kg/day, 3 days, n=5) or its vehicle (n=5). Single-cell extracellular recordings were performed in the DRN of chloral-hydrate anaesthetized rats by using single-barrel glass microelectrodes, and 5-HT neurons were identified according to the classical criteria (see Example 5, the experimental procedures). RS 67333 was administered through the use of osmotic minipumps, inserted subcutaneously in the region of the back. Recordings were performed with the minipumps still in place.
Extracellular recordings of DRN 5-HT neurons. Recordings were performed using single-barreled glass micropipettes. Electrodes were filled with a 2 M NaCl solution saturated with Fast Green FCF, resulting in an impedance of 2-5 MΩ. Rats were anaesthetized with chloral hydrate (400 mg/kg, i.p.) and placed in a stereotaxic frame. A burr hole was drilled on the midline 1 mm anterior to lambda. DRN 5-HT neurons were encountered over a distance of 1 mm starting immediately below the ventral border of the Sylvius aqueduct. These neurons were identified using the classical criteria: a slow (0.5-2.5 Hz) and regular firing rate and long-duration (0.8-1.2 ms) positive action potentials (Aghajanian, 1978). At the end of the experiments, a 25 μA cathodal current was passed through the recording electrode to leave a Fast Green deposit at the recording site. Animals were sacrificed with an i.v. overdose of chloral hydrate, and the brain removed. The site of recording was verified under microscope immediately after experiments.
Statistical analysis. The comparison between the two slopes in FIG. 7 was performed by using the GraphPad Prism software (Version 3.03, GraphPad Software Inc.). All other statistics were performed by using one-way ANOVAs, followed by the Dunnett's test when multiple comparisons were necessary.
Effect of a 3-day treatment with a 5-HT4 agonist on DRN 5-HT1A autoreceptors sensitivity. […] In rats treated with the selective 5-HT4 agonist RS 67333 (Eglen et al., 1995) (1.5 mg/kg/day), these values were shifted to the right, reaching 226±26 and 430 μg/kg, respectively. […] The acute inhibitory effect produced by a SSRI on DRN 5-HT neuronal activity results from increased extracellular levels of 5-HT, due to the blockade of its reuptake, and is selectively related to the stimulation of somatodendritic 5-HT1A autoreceptors (Hajos et al., 1999). The degree of inhibition induced by citalopram has therefore been used as a reliable index of their sensitivity (Arborelius et al., 1999, 2004; Sanchez et al., 2003). It appears that a 3-day treatment with a 5-HT4 receptor agonist is sufficient to desensitize 5-HT1A autoreceptors in the DRN.

[4] = microiontophoretic application, 1 nA
[5] = rats treated with RS 67333 1.5 mg/kg/day, 3 days

N[C@@H](Cc1ccc(Cl)cc1)C(=O)O (racemic) [pCPA, para-chlorophenylalanine]
quisqualate ejection currents needed to activate CA3 pyramidal neurons ([1]; rats co-treated with RS 67333 and pCPA): 0 to −2 nA
effect of pCPA on the facilitory action of WAY 100635 ([1]; rats treated with RS 67333, pCPA 150 mg/kg i.p. 72, 48 and 24 h before): totally abolished
effect of pCPA on CA3 neuron firing activity and response to WAY 100635 ([1]; vehicle group): no effect per se

COc1[nH]c2ccc(F)cc2c1C(=O)OCC1CCN(CCNS(C)(=O)=O)CC1 [GR 125487]
effect of GR 125487 on the action of prucalopride ([2]; GR 125487 1000 μg/kg i.v.): abolished
effect of GR 125487 on the facilitory effect of 3-day prucalopride or RS 67333 on DRN 5-HT firing rate (DRN 5-HT neurons; GR 125487 acute i.v., tracks from 30 min after injection): totally suppressed
effect of GR 125487 on its own on 5-HT neuronal activity (DRN 5-HT neurons; acute i.v., control rats): small, non statistically significant

COc1ccccc1N1CCN(CCN(C(=O)C2CCCCC2)c2ccccn2)CC1 [WAY 100635]
effect of local WAY 100635 by itself [2, 4]: devoid of any effect
effect of local WAY 100635 on the inhibition by prucalopride [2, 4]: totally reversed
effect of WAY 100635 on CA3 pyramidal neurons ([1]; rat, in vivo, iv): no effect; also recorded: without any effect

CN(C)CCCC1(c2ccc(F)cc2)OCc2cc(C#N)ccc21 (centres unmarked) [citalopram]
change of total time of immobility in FST ([3]; Example 3, single i.p. 30 min before test, citalopram or paroxetine 10 mg/kg, prucalopride 2.5 mg/kg, RS 67333 1.5 mg/kg): −34%
effect on immobility in FST ([3]; Example 4, citalopram 3 mg/kg i.p.): no effect
slope of the dose-response curve (DRN 5-HT1A autoreceptors; RS 67333 group (1.5 mg/kg/day, 3 days)): −0.25±0.02
ED50 of inhibition of 5-HT neuronal firing rate (DRN 5-HT1A autoreceptors; naïve (vehicle) animals): 0.13 ± 0.03 mg/kg
ED100 of inhibition of 5-HT neuronal firing rate (DRN 5-HT1A autoreceptors; naïve (vehicle) animals): 0.28 mg/kg
ED50 of inhibition of 5-HT neuronal firing rate (DRN 5-HT1A autoreceptors; [5]): 0.226 ± 0.026 mg/kg
ED100 of inhibition of 5-HT neuronal firing rate (DRN 5-HT1A autoreceptors; [5]): 0.43 mg/kg
slope of the dose-response curve (DRN 5-HT1A autoreceptors; vehicle group): −0.34±0.03
